How the values were obtained:
V. cholerae = experiment: Competitive assay: inhibition of V. cholerae attachment to transfected CHO (α1-2 FT) cells, colony counting; assay type: cell-based, Vibrio cholerae
Description: (§1) To determine whether 2′Fucosyllactose is an important chemical structure of the cell receptor for V. cholerae and enterohemorrhagic E. coli (EHEC), a competitive assay was set up. A volume of 400 ul of a suspension of transfected CHO (α1-2 FT) cells at a concentration of 4×10^5 cells/mL was placed in each well of an 8-well microchamber slide (Lab-Tek, Nunc, Inc. Naperville, Ill.). Cells were incubated overnight at 37° C. in a 5% CO2 atmosphere. A bacterial suspension of 1.5×10^8 of V. cholerae was added with either 0.5, 1, or 2 mg/mL of 2′fucosyllactose and incubated at 37° C. Wells were washed 6 times with PBS. Cells were detached with […] of triton x 100 and serial dilutions in TBS or McConkey agar plates were done for colony counting.

[1] = test system: enterohemorrhagic E. coli (EHEC); experiment: Competitive assay: inhibition of EHEC attachment to transfected CHO (α1-2 FT) cells, colony counting; assay type: cell-based, Escherichia coli
Description: as §1

[2] = test system: Vibrio cholerae 01 Ogawa strain 2995; assay type: binding
[3] = test system: Enterohemorrhagic Escherichia coli (EHEC) 0157:H7 strain 933; assay type: binding
[4] = test system: Enteropathogenic E. coli (EPEC); assay type: binding, Escherichia coli

Row | Compound | dose dependence of inhibition of bacterial cell attachment (V. cholerae; 0.5, 1, or 2 mg/mL) | inhibition of bacterial cell attachment (V. cholerae; transfected CHO (α1-2 FT) cells, concentration as low as 0.5 mg/ml) | inhibition of binding, EHEC compared with V. cholerae ([1]; EHEC versus V. cholerae, transfected CHO cells) | dose dependence of inhibition of bacterial cell attachment ([1]; EHEC, 0.5, 1, or 2 mg/mL) | inhibition of bacterial cell attachment ([1]; EHEC, transfected CHO (α1-2 FT) cells, concentration as low as 0.5 mg/ml) | binding of V. cholerae to immobilized blood group antigen neoglycoprotein [2] | binding of EHEC to immobilized blood group antigen neoglycoprotein [3] | binding of EPEC to immobilized blood group antigen neoglycoprotein [4]
1 | C[C@@H]1O[C@@H](O[C@H]2[C@H](O[C@H]3[C@H](O)[C@@H](O)C(O)O[C@@H]3CO)O[C@H](CO)[C@H](O)[C@@H]2O)[C@@H](O)[C@H](O)[C@@H]1O (some centres unmarked) [2′fucosyllactose, 2′-fucosyllactose (Fucα1-2Galβ1-4Glc)] | dose-dependent inhibition | significant inhibition | greater inhibition | dose-dependent inhibition | significant inhibition | – | – | –
2 | Lewis^x | – | – | – | – | – | stronger binding | stronger binding | stronger binding

— US20020019991A1, “COMPOSITIONS CONTAINING AN ALPHA 1,2-FUCOSE LINKAGE AND USES THEREOF” (ABBOTT LABORATORIES, priority 1998, published 2002)
